Test results taken from patent US20120046249A1, “METHODS OF REDUCING THE RISK OF CARDIOVASCULAR DISEASE IN POSTMENOPAUSAL WOMEN” (priority 2008, published 2012).

Columns and labels:
Assay type in all cases: in vivo, human
MMP-9 = assay: Serum MMP-9 by gelatin zymography, 2-year randomized clinical trial of SDD versus placebo; conditions: postmenopausal osteopenic women with periodontitis, 20 mg doxycycline b.i.d. for 2 years, 92 kDa gelatinase
Description: (§1) Elevated circulating MMP 9 has been associated with increased risk for fatal cardiac events and PM are considered a population vulnerable, due to decreased estrogen levels, to cardiovascular disease.
(§2) Details concerning subject inclusion and exclusion criteria have been published previously (Payne et al., J. Clin. Periodontol. 34:776-787, 2007). Briefly, subjects were 45-70 years of age at telephone screening, postmenopausal, osteopenic at the lumbar spine or femoral neck, and not receiving hormone replacement therapy (HRT). […] The subjects also had to be in good general health without co-morbidities that could have interfered with adherence to the study protocol, planned follow-up or endpoint measurement.
(§3) 113 PM women who completed the randomized clinical trial (RCT) consented at the final (two-year) study visit for the analysis of stored serum samples. 51 subjects received SDD (20 mg doxycycline) and 62 received placebo tablets b.i.d. for 2 years. Serum samples were collected at the baseline, 1-year and 2-year appointments and frozen at −80° C. until analyzed. MMPs were measured by gelatin zymography using denatured type I collagen as a substrate and purified MMP-2 (72 kDa) and MMP-9 (92 kDa) as standards. Gelatinolytic bands were scanned densitometrically. Statistical analyses were performed using Generalized Estimating Equations. Primary analyses were intent-to-treat (ITT). […]

CRP = assay: Serum CRP by high-sensitivity ELISA, 2-year RCT of SDD versus placebo; conditions: intent-to-treat
Description: The objective of this study was to determine whether sub-antimicrobial-dose-doxycycline (SDD) can reduce serum inflammatory biomarkers associated with cardiovascular disease (CVD) risk (primary outcome: CRP) in a two-year, randomized controlled clinical trial (RCT) in postmenopausal (PM) women with systemic osteopenia and periodontitis.
(§4) 113 women who completed the RCT (SDD group: n=51; placebo group: n=62) consented at the final (two-year) study visit for their baseline, one-year and two-year serum samples to be analyzed for serum inflammatory biomarkers. Analyses by ELISA included CRP (high-sensitivity ELISA), IL-6, myeloperoxidase (MPO), IL-1β and TNF-α. Serum lipids (total cholesterol, HDL cholesterol, LDL cholesterol, VLDL cholesterol, and triglycerides) were analyzed by a commercial laboratory. Statistical analyses were performed using Generalized Estimating Equations; primary analyses were intent-to-treat (ITT). Pre-specified subgroup analyses also were performed. All results are presented as ratios of median values (SDD versus placebo) unless otherwise indicated.

MMP-2 = assay: Serum MMP-2 by gelatin zymography, 2-year randomized clinical trial of SDD versus placebo; conditions: per-protocol analysis, p=0.03, SDD minus placebo
Description: as §1, §2, §3

[1] = Serum lipids (commercial laboratory), 2-year RCT of SDD versus placebo; conditions: subgroup: women more than 5 years postmenopausal
Description: as §4, with “The objective of this study was to determine whether sub-antimicrobial-dose-doxycycline (SDD) can reduce serum inflammatory biomarkers associated with cardiovascular disease (CVD) risk (primary outcome: CRP) in a two-year, randomized controlled clinical trial (RCT) in postmenopausal (PM) women with systemic osteopenia and periodontitis. 113” for “113”

MMP-8/TIMP-1 = assay: Median MMP-8/TIMP-1 ratio, further analysis of the 2-year RCT; conditions: women within five years of menopause, at two years

C[C@H]1c2cccc(O)c2C(=O)C2=C(O)[C@]3(O)C(=O)C(C(N)=O)=C(O)[C@@H](N(C)C)[C@@H]3[C@@H](O)[C@@H]21 [SDD, 6α-deoxy-5-hydroxytetracycline]
reduction of serum MMP-9 levels (difference in means, SDD minus placebo) (MMP-9; intent-to-treat analysis): 28.4 scanning units | reduction of serum MMP-9 levels (difference in means, SDD minus placebo) (MMP-9; per-protocol analysis): 29.4 scanning units | reduction of median CRP levels compared to placebo (CRP; 2-year RCT, serum): 18% | CRP, ratio of median values (SDD versus placebo) (CRP; 95% CI 0.70 to 0.97, p=0.02): 0.82 | reduction of serum MMP-2, 2-year values (average) (MMP-2): 16.5 units | VLDL cholesterol, ratio of median values (SDD versus placebo) ([1]; 95% CI 0.76 to 1.00, p=0.06): 0.87 | triglycerides, ratio of median values (SDD versus placebo) ([1]; 95% CI 0.76 to 1.01, p=0.06): 0.87 | increase in HDL cholesterol over time (difference in means) ([1]; 95% CI 1.17 to 10.81, p=0.01): 5.99 mg/dL | reduction of median MMP-8/TIMP-1 ratio (MMP-8/TIMP-1): 49% | MMP-8/TIMP-1, ratio of medians (SDD relative to placebo) (MMP-8/TIMP-1; 95% CI 0.31 to 0.82, p=0.006): 0.51
